Assay results: patent US9487477B2, “Crystalline phase of (3S,3S′) 4,4′-disulfanediylbis(3-aminobutane 1-sulfonic acid) with L-lysine” (Quantum Genomics, priority 2012, dated 2016)

Legend:
[1] = Hygroscopicity; type: physicochemical
[2] = Karl Fischer titration (water content); type: physicochemical
Text: A Karl Fischer titration is a classical titration method to determine the trace amounts of water in a sample. A Karl Fischer titration has confirmed the DSC analysis, by determining a water content of 0.06% inside the sample (i.e. very small amount of adsorbed water).

[3] = Solubility in water and other solvents; type: physicochemical
[4] = Differential scanning calorimetry (thermal stability); type: physicochemical; settings: DSC from −20° C. up to 180° C., heating rate 5K/min
Procedure: FIG. 3: DSC pattern of ABSD.(L-lysine)2. Said experiment was performed from −20° C. up to 180° C., heating rate=5K/min.
The phase isolated, so called “ABSD L-lysinate”, was analyzed by DSC (FIG. 3). […] Said results further confirm that the crystalline form is anhydrous.

[5] = cited from earlier work
[6] = TGA-DSC analysis coupled to mass spectrometry (thermal behavior, loss of water); type: physicochemical; settings: TGA-DSC from 30° C., heating rate 5K/Min
Procedure: A TGA-DSC analysis (coupled to mass spectrometry) was performed on this salt in order to observe its thermal behavior, and to determine its water content.
A TGA-DSC analysis (coupled to mass spectroscopy) was performed on this phase (FIG. 8).
A TGA-DSC analysis coupled to a Mass Spectroscopy (MS) was performed on this phase (FIG. 10).

SMILES: NCCCCC(N)C(=O)O (racemic) [DL-lysine, reference compound]
- hygroscopicity [1]: high hygroscopicity up to deliquescence

SMILES: NCCCC[C@H](N)C(=O)O.NCCCC[C@H](N)C(=O)O.N[C@@H](CCS(=O)(=O)O)CSSC[C@@H](N)CCS(=O)(=O)O [ABSD L-lysinate]
- water content [2]: 0.06%
- aqueous solubility compared to the ABSD trihydrate [3]: higher
- aqueous solubility compared to the ABSD zwitterionic form ([3]; room temperature): higher
- hygroscopy compared to the ABSD zwitterionic form [1]: lower
- thermal stability: no thermal phenomenon up to [4]: up to 180 °C

SMILES: N[C@H](CCS(=O)(=O)O)CSSC[C@H](N)CCS(=O)(=O)O [ABSD zwitterion, (3S,3S′) 4,4′-disulfanediylbis(3-aminobutane 1-sulfonic acid)]
- time for the mixture of hydrated forms to evolve toward the trihydrate phase ([5]; stored at circa 20° C. and RH>50%, WO 2012/045849): less than two days

SMILES: N[C@@H](CCS(=O)(=O)[O-])CSSC[C@@H](N)CCS(=O)(=O)O.[Na+] [sodium hydrogen salt of ABSD]
- temperature of loss of water [6]: circa 35 °C

SMILES: N[C@H](CCS(=O)(=O)O)CSSC[C@H](N)CCS(=O)(=O)O [trihydrate phase]
- temperature at which dehydration toward the dihydrate form starts ([5]; as described in WO 2012/045849): below 30 °C
